The subject of experiment [1] is mTORC1. The note with it: cited from earlier work; for mTORC1 activation (phosphorylation of S6K1 at threonine 389): mouse embryonic fibroblast (MEF) cells.
In experiment [2] the test system is ischemia reperfusion (I/R)-induced iAKI. The experiment can be described thus: functional screening of amino acids in ischemia reperfusion (I/R)-induced iAKI. The conditions noted are these: 48 hours reperfusion after 25 min ischemia, 75 mg/kg i.p. 1 hour prior and every 8 hours afterwards, vs vehicle; for BUN / sCr: n=5-6. The format is in vivo, wild type C57B/L6 mice. How it is done:
FIGS. 4A-F show functional screening of amino acids for the regulation of ischemia reperfusion (I/R)-induced iAKI. Ischemia was incurred by clamping renal artery of the left kidney for 25 min while the right kidney was removed prior to clamping. Renal functions were analyzed by quantitating serum creatinine (sCr) and blood urea nitrogen (BUN) after the reperfusion for 48 hours. FIGS. 4[…]) or L-valine (Val; 75 mg/kg) were intraperitoneally administered into wild type C57B/L6 mice 1 hour prior to the induction of ischemic and every 8 hours afterwards.

Experiment [3] deals with mTORC1. The note with it: human embryonic kidney 293A (HEK293A) cells; cited from earlier work.
Experiment [4] relates to rhabdomyolysis (Rh)-induced iAKI. Description: functional screening of amino acids in rhabdomyolysis (Rh)-induced iAKI (50% glycerol i.m.). The format is in vivo, wild type C57BL6 mice. How it is done: FIGS. 2A-L show a functional screening of amino acids for the regulation of rhabdomyolysis (Rh)-induced iAKI. Rh was incurred by intramuscularly injecting 50% glycerol (6 ml/kg), and renal functions were analyzed by quantitating serum creatinine (sCr) and blood urea nitrogen (BUN) after 24, 48 and 168 hours. […] or glutamine (75 mg/kg) were intraperitoneally administered into wild type C57BL6 mice at 1 hour prior to injury incurrence. It was observed that sCr and BUN were reduced at 24 hours (FIGS. 2A, B) in isoleucine-treated rhabdomyolysis mice, but were increased at 48 hours in leucine-treated mice (FIGS. 2C, D) when compared with vehicle (Veh)-treated counterparts (n=7). […] FIG. 2[…], or histidine were intraperitoneally administered into wild type C57BL6 mice at 1 hour prior to injury incurrence and then every 8 hours thereafter. It was observed that threonine reduces sCr and BUN at 24 h and histidine reduces sCr and BUN at 24 h and 48 h when compared with Veh Rh mice. Therefore, threonine and histidine protected from Rh-induced iAKI. […] FIGS. 3A-F show a functional screening of […] or L-valine for the regulation of rhabdomyolysis (Rh)-induced iAKI. Rh was incurred by intramuscularly injecting 50% glycerol (6 ml/kg), and renal functions were analyzed by quantitating serum creatinine (sCr) and blood urea nitrogen (BUN) after 24, 48 and 168 hours. FIGS. 3[…] or L-valine (75 mg/kg) were intraperitoneally administered into wild type C57BL6 mice at 1 hour prior to injury incurrence and then every 8 hours for a total of 5 doses.

The test system of experiment [5] is ischemic acute kidney injury (AKI). Description: ischemia/reperfusion (IR) ischemic AKI in wild type mice, L-leucine pretreatment. The format is in vivo. The note with it: WT IR AKI mice; 75 mg/kg i.p. 1 hour prior; 25 min ischemia, 48 hours reperfusion; vs vehicle; n=4-7. Here is the method: (§1) L-leucine (75 mg/kg) was intraperitoneally administered into wild type (WT) and nephron-specific Spns1 knockout (Spns1f/f/Six2-Cre) mice 1 hour prior to initiating ischemic AKI. The left kidney was then removed. Ischemia/reperfusion (IR) was performed by clamping the renal artery of the right kidney for 25 min of ischemia followed by 48 hours of reperfusion.

Experiment [6] shares this test system. Description: ischemia/reperfusion (IR) ischemic AKI in nephron-specific Spns1 knockout mice, L-leucine pretreatment. The format is in vivo. The note with it: Spns1f/f/Six2-Cre IR AKI mice; 75 mg/kg i.p. 1 hour prior; 25 min ischemia, 48 hours reperfusion; vs vehicle; n=4-7. How it is done: as §1
Where [7] appears, read: 24 hours post Rh, 75 mg/kg i.p. 1 hour prior to injury then every 8 hours, total 5 doses, vs vehicle, n=7 (FIG. 3A).
Setting [8] is: 24 hours post Rh, 75 mg/kg i.p. 1 hour prior to injury then every 8 hours, total 5 doses, vs vehicle, n=7 (FIG. 3B).
The mark [9] stands for this setting: 24 h post Rh, i.p. 1 hour prior to injury and every 8 hours thereafter, vs Veh Rh mice (FIG. 2G).
Where [10] appears, read: 24 h post Rh, i.p. 1 hour prior to injury and every 8 hours thereafter, vs Veh Rh mice (FIG. 2H).

Read-outs that look alike come from different tables or passages of the source.

Consider `N[C@@H](CS)C(=O)O` [Cysteine], for which the “mTORC1 activation (phosphorylation of S6K1 at threonine 389)” value in the experiment with mTORC1 [1] is “activates”.
Take `C[C@H](N)C(=O)O` [L-alanine]: the “impacts on I/R-AKI (sCr and BUN)” value in experiment [2] is recorded as “Neither L-serine (FIGS. 4A, B), L-alanine (FIGS. 4A, B) nor L-methionine (FIGS. 4C, D) had significant impacts”. For the same molecule, the “mTORC1 activation (phosphorylation of S6K1 at threonine 389)” value in the experiment with mTORC1 [1] and in the experiment on mTORC1 [3] was “activate” in each case.
On to `N=C(N)NCCC[C@H](N)C(=O)O` [L-arginine], for which the BUN entry in experiment [2] is given as “elevated”; in experiment [4] (setting [8]), “reduced”. For the same molecule, the sCr result in experiment [2] is recorded as “elevated”; in experiment [4] (setting [7]), “reduced”. Also, the “mTORC1 activation (phosphorylation of S6K1 at threonine 389)” value in the experiment with mTORC1 [1] and in the experiment with mTORC1 [3] was “activate” throughout.
As to `N[C@@H](CC(=O)O)C(=O)O` [L-aspartic acid], in experiment [2], the BUN result is “reduced” and the sCr entry is reported as “reduced”.
For `NC(=O)CC[C@H](N)C(=O)O` [L-glutamine], in experiment [2], the BUN entry was “reduced”. The sCr result in experiment [2] is “reduced”. Further, the “mTORC1 activation (phosphorylation of S6K1 at threonine 389)” value in the experiment on mTORC1 [1] and in the experiment with mTORC1 [3] was “activate” throughout. Moreover, the “effects on Rh-induced AKI (sCr and BUN)” value in experiment [4] (24, 48 and 168 hours post Rh, 75 mg/kg i.p. 1 hour prior to injury, vs vehicle (FIGS. 2A-F)) was “no significant effects”.
Consider `N[C@@H](Cc1c[nH]cn1)C(=O)O` [L-histidine], for which the BUN result in experiment [2] is “reduced”; in experiment [4] (setting [10]), “reduces”; in experiment [4] (48 h post Rh, i.p. 1 hour prior to injury and every 8 hours thereafter, vs Veh Rh mice (FIG. 2J)), “reduces”. The sCr entry is “reduced” in experiment [2]; “reduces” in experiment [4] (setting [9]); “reduces” in experiment [4] (48 h post Rh, i.p. 1 hour prior to injury and every 8 hours thereafter, vs Veh Rh mice (FIG. 2I)). The “mTORC1 activation (phosphorylation of S6K1 at threonine 389)” value with mTORC1 [1] and in the experiment on mTORC1 [3] was “activate” each time.
For `CC[C@H](C)[C@H](N)C(=O)O` [L-isoleucine], the BUN entry in experiment [2] is reported as “reduced”; in experiment [4] (24 hours post Rh, 75 mg/kg i.p. 1 hour prior to injury, vs vehicle, n=7 (FIG. 2B)), “reduced”. For the same molecule, the sCr result is listed as “reduced” in experiment [2] and “reduced” in experiment [4] (24 hours post Rh, 75 mg/kg i.p. 1 hour prior to injury, vs vehicle, n=7 (FIG. 2A)).
As to `CC(C)C[C@H](N)C(=O)O` [L-leucine], the BUN result in experiment [2] was “reduced”; in experiment [4] (48 hours post Rh, 75 mg/kg i.p. 1 hour prior to injury, vs vehicle, n=7 (FIG. 2D)), “increased”. The sCr result in experiment [2] was “reduced”; in experiment [4] (48 hours post Rh, 75 mg/kg i.p. 1 hour prior to injury, vs vehicle, n=7 (FIG. 2C)) it was “increased”. Further, the “Serum creatinine (sCr)” value in experiment [5] and in experiment [6] was “markedly reduced” throughout. In addition, the “blood urea nitrogen (BUN)” value in experiment [5] and in experiment [6] was “markedly reduced” in each case. Moreover, the “mTORC1 activation (phosphorylation of S6K1 at threonine 389)” value in the experiment with mTORC1 [1] and in the experiment with mTORC1 [3] was “activate” throughout.
Take `CSCC[C@H](N)C(=O)O` [L-methionine]: the “impacts on I/R-AKI (sCr and BUN)” value in experiment [2] is on record as “Neither L-serine (FIGS. 4A, B), L-alanine (FIGS. 4A, B) nor L-methionine (FIGS. 4C, D) had significant impacts”. Also, the “mTORC1 activation (phosphorylation of S6K1 at threonine 389)” value in the experiment on mTORC1 [1] and in the experiment on mTORC1 [3] was “activate” each time.
For the molecule `N[C@@H](CO)C(=O)O` [L-serine], the “impacts on I/R-AKI (sCr and BUN)” value in experiment [2] is listed as “Neither L-serine (FIGS. 4A, B), L-alanine (FIGS. 4A, B) nor L-methionine (FIGS. 4C, D) had significant impacts”. The “mTORC1 activation (phosphorylation of S6K1 at threonine 389)” value in the experiment with mTORC1 [1] and in the experiment with mTORC1 [3] was “activate” each time.
Consider `C[C@@H](O)[C@H](N)C(=O)O` [L-threonine], for which the BUN entry is given as “reduced” in experiment [2] and “reduces” in experiment [4] (setting [10]). Also, the sCr result in experiment [2] is “reduced”; in experiment [4] (setting [9]), “reduces”. The “mTORC1 activation (phosphorylation of S6K1 at threonine 389)” value in the experiment on mTORC1 [1] and in the experiment on mTORC1 [3] was “activate” throughout.
Consider `CC(C)[C@H](N)C(=O)O` [L-valine], for which the BUN entry is “elevated” in experiment [2]; “reduced” in experiment [4] (setting [8]); “reduced” in experiment [4] (48 hours post Rh, 75 mg/kg i.p. 1 hour prior to injury then every 8 hours, total 5 doses, vs vehicle, n=7 (FIG. 3D)). Also, the sCr entry in experiment [2] is “elevated”; in experiment [4] (setting [7]), “reduced”; in experiment [4] (48 hours post Rh, 75 mg/kg i.p. 1 hour prior to injury then every 8 hours, total 5 doses, vs vehicle, n=7 (FIG. 3C)), “reduced”. For the same molecule, the “mTORC1 activation (phosphorylation of S6K1 at threonine 389)” value with mTORC1 [1] and in the experiment on mTORC1 [3] was “activate” each time.
`NC(=O)C[C@H](N)C(=O)O` [asparagine]: the “mTORC1 activation (phosphorylation of S6K1 at threonine 389)” value with mTORC1 [1] and in the experiment on mTORC1 [3] was “activate” in each case.
In the case of `C[C@H]1CCC/C=C/[C@@H]2C[C@H](O)C[C@H]2[C@H](O)/C=C/C(=O)O1` [brefeldin A, reference compound], the “lysosomal localization of mTORC1 induced by glutamine and asparagine” value in the experiment on mTORC1 [1] (MEFs) is recorded as “impairs”. For the same molecule, the “glutamine and asparagine-induced mTORC1 activation” value in the experiment on mTORC1 [1] (wild type and Rag depleted MEFs) was “inhibits”.

The record behind these values is patent US12691088B2, “Reactivation of mTOR in acute kidney injury (AKI)” (The Trustees of Columbia University in the City of New York, priority 2021, dated 2026).
